Reference: patent US4329347A, “Cardiotonic and antithrombotic sulfur-containing derivatives of carbostyril” (Boehringer Ingelheim GmbH, priority 1978, dated 1982)
Like-named read-outs stand apart in the source and are kept apart here.

Columns and labels:
[1] = test system: Platelet Thromboses in the Rat; test: Influence on platelet thromboses in the rat (electrical irritation of a vein); type: in vivo; settings: male rats, five animals per dose, 20 minutes observation, vs. untreated group; dose not given
Protocol: Literature: H. Poliwoda, J. Lilli, G. Hagemann, D. Schyma: Z. ges. exp. Med., 145, 252 (1968)
Male rats (body weight between 70 and 90 grams) received an intraperitoneal Nembutal anesthesia (dose: 50 to 60 mg/kg). To avoid hypothermia, they were positioned on a heated test table (about 37° C.). The respiratory passage was held free by insertion of a tracheal cannula.
After a transverse abdominal incision was made, an intestinal loop was exposed and fixed, and a vein, with a diameter of about 300 μ was prepared. A monopolar platinum electrode embedded in glass and having a tip diameter of about 100μ was applied to the vein as an irritating cathode. The indifferent electrode was applied to the same vessel opposite the cathode. The irritation was provoked by 150 volts of direct current for a period of 100 milliseconds. After the irritation, the area of observation was continuously rinsed with warm (37° C.) physiological salt solution.
The formation and growth of the thrombosis was followed under a binocular microscope over a time period of 20 minutes. During the entire period of observation, the percentage of the vessel volume closed by the thrombosis was estimated at different time intervals.
Five animals per dose were used, and the results were averaged.
In the test compound experiments, the average size of the thrombosis in the treated animal group was compared with that of an untreated animal group. The result was given as "percentage reduction of the average thrombosis size." The following table contains the values obtained.

conscious mice = test: Prolongation of the bleeding time (mouse tail); type: in vivo; settings: po, 10 mg/kg orally, after 1 hour, compared to control group, read-out: Prolongation of the bleeding time in % after one hour
Protocol: The function of the thrombocytes can be determined by measuring the bleeding time. The normal bleeding time in human beings is in the range of 1 to 3 minutes and needs intact thrombozytes in a sufficient number. If the number of thrombocytes is normal and the bleeding time is prolonged, this signifies a disturbed function of the thrombocytes. This is found in some congenital defects of thrombocyte function (V. Willebrand's disease, for example). If, on the other hand it is the aim to prevent spontaneous aggregation of the thrombocytes and occlusion in the arterial system by antithrombotic drugs, the bleeding time should be prolonged as a consequence. Therefore, using antithrombotic substances, a prolongation of the bleeding time is expected. If the plasma coagulation system is not influenced by such a medicine, coagulation tests will give a normal result.
To measure the bleeding time, 10 mg/kg of the test compound is administered orally to conscious mice. After 1 hour, 0.5 mm of the tip of the mousetail is cut off and droplets of blood are gently removed with filter paper every 30 second. The number of drops of blood give a measure for the bleeding time (5 animals/experiment).
The numbers in the following table represent the prolongation in % compared to the control group.

mice = test: Acute toxicity, oral; type: in vivo; settings: single oral dose of 1,000 mg/kg, 14 days observation
Protocol: (§1) The acute toxicity of the test compounds was determined on groups of 10 mice each after oral administration of a single dose of 1,000 mg/kg (observation time: 14 days).

Acute toxicity, oral = type: in vivo; settings: mouse, in vivo; mice, single oral dose, 14 days observation; read-out: Acute Toxicity per os
Protocol: as §1

auricles (rat heart) = test: Positive inotropic activity on isolated rat auricles; parameters: species or system rats; settings: 1×10^-5 gm/ml, 30° C., from the starting values, read-out: % Increase in Force of Contraction
Protocol: Rats were anesthetized with ether and subsequently killed by a blow on the neck. After opening the thorax, the heart was removed and both auricles were separated. The auricles were put into an organ bath of 100 ml containing a tyrode solution at a temperature of 30° C. The tyrode solution was infused with carbogen (95% of O2 and 5% of CO2). The spontaneous contractions of the auricles were registered isometrically. The auricles were weighted with 1 gm. The compounds in question were tested on 4 auricles each at 1×10^-5 gm/ml. The alteration of the contraction force was registered in % from the starting values.

[2] = test system: thrombocyte aggregation in platelet-rich plasma of healthy human donors; test: Thrombocyte aggregation inhibiting activity by the method of Born and Cross (platelet-rich plasma); type: cell-based; settings: optical density
Protocol: 1. Determination of the thrombocyte aggregation inhibiting activity by the method of Born and Cross [J. Physiol. 170, 397 (1964)]:
The thrombocyte aggregation was measured in the platelet-rich plasma of healthy human donors. The decrease in optical density was measured and recorded photometrically after the addition of adenosine diphosphate or collagen. From the angle of inclination of the density curve, the rate of aggregation was estimated (Vmax). The optical density was taken as the point on the curve where the most light was transmitted (O.D.).
The EC50 values in the tables indicate the optical density.
Small doses of collagen were chosen, but sufficient to give irreversible aggregation. To provoke maximum aggregation, about 0.01 ml of the collagen solution was added to 1 ml of platelet-rich plasma. (Commercial collagen of Hormonchemie, Munich). The adenosine diphosphate (ADP) doses were chosen to give only the first phase of the BORN curve. The necessary amount of ADP was about 1×10^-6 mol/l. Commercial ADP of Boehringer Mannheim was used.
The substance dose which produced a 50% inhibition of the thrombozytes aggregation (EC50) was determined graphically.

[3] = test system: phosphodiesterase (PDE), supernatant of human blood platelets; test: PDE inhibition (3H-cAMP hydrolysis); type: biochemical; settings: human blood platelet PDE, 1 μmol/liter 3H-cAMP, pH 7.4, 15 minutes, 37° C.
Protocol: cAMP is hydrolysed to AMP by phosphodiesterase (PDE) from various sources, including blood platelets. This hydrolysis is inhibited by PDE inhibitors according to the concentration.
The phosphodiesterase used was the 10,000×g supernatant of human blood platelets which had been frozen with water and thawed out again.
An amount of 0.3 ml of a mixture which contained 0.1 mole/liter of trihydroxy-aminomethane (pH 7.4), 3 mmole/liter of magnesium chloride, 1 mmole/liter of AMP, 1 μmol/liter of ^3 H-cAMP (specific activity about 10 MBq/μmol), PDE as well as the substance to be tested and water for the control were incubated for 15 minutes at 37° C.
The incubation was stopped by the addition of 0.5 ml of zinc sulfate (0.266 mole/liter) and 0.5 ml of barium hydroxide (0.266 mole/liter), the precipitate was centrifuged and the activity remaining in the supernatant of the unreacted ^3 H-cAMP was determined. From a comparison of the substance preparations and the control preparations, the concentration for a 50% inhibiting activity (IC50) of the respective substance was calculated.

[4] = test system: thrombocytes (number in the blood after tumor cell injection); test: Effect on tumor cell embolism: thrombocyte decrease after intravenous tumor cell injection in rats; type: in vivo; settings: control 70
Excerpt: (b) By virtue of the injection of tumor cells, a strong decrease in the number of thrombocytes in the blood was produced in the test animals (rats) as a consequence of thrombocyte and tumor cell thrombocyte aggregation. […] By administration of suitable substances, the extent of the thrombocyte decrease can be reduced as compared to that of the untreated control animals.

[5] = test system: Walker-256 carcinosarcoma cells; test: Effect on tumor cell embolism: mortality after injection of Walker-256 carcinosarcoma cells in mice; type: in vivo
Protocol: (a) Mice having a body weight of about 25 grams received an injection in the jugular vein of a million Walker-256 carcinosarcoma cells. These tumor cells lead to a formation of thrombocyte clumps, which causes a fatal tumor cell embolism in a portion of the animals. Under the influence of the test compounds, the number of deceased animals can be reduced. Normally, about 65% of the control animals died within 10 minutes as a result of pulmonary embolism.

[6] = ADP-induced (about 1×10^-6 mol/l), read-out: EC50 (50% inhibition of thrombocyte aggregation), ADP
[7] = collagen-induced, read-out: EC50 (50% inhibition of thrombocyte aggregation), Collagen

SMILES	Percentage Reduction of the Average Thrombosis Size [1] [%]	change in vivo at 10 mg/kg (conscious mice) [%]	animals died (acute toxicity per os) (mice)	LD50 at 336 h (Acute toxicity, oral) [mg/kg]	activation at 10 µg/mL (auricles (rat heart)) [%]	EC50 [2, 6] [µM]	EC50 [2, 7] [µM]	IC50 [3] [µM]	% Reduction of the Number of Thrombocytes ([4]; dose 2 mg/kg) [%]	% Reduction of the Number of Thrombocytes ([4]; dose 6 mg/kg) [%]	% Reduction of the Number of Thrombocytes ([4]; dose 18 mg/kg) [%]	Percentage of Deceased Animals ([5]; 2 mg/kg p.o.) [%]	Percentage of Deceased Animals ([5]; 6 mg/kg p.o.) [%]	% Reduction of the Number of Thrombocytes ([4]; dose 4 mg/kg) [%]	% Reduction of the Number of Thrombocytes ([4]; dose 8 mg/kg) [%]
O=C1CCc2cc(OCCCC[S+]([O-])c3ccccn3)ccc2N1 (stereo not shown) [E, 6-[4-(2-Pyridyl-sulfinyl)-butoxy]-3,4-dihydro-carbostyril]	16	152	0 out of 10 animals	> 1000	16	25	6.5	3.9							
O=C1CCc2cc(OCCCC[S+]([O-])c3cc(Cl)ccc3Cl)ccc2N1 (stereo not shown) [S, 6-[4-(2,5-Dichlorophenyl-sulfinyl)-butoxy]-3,4-dihydro-carbostyril]			0 out of 10 animals	> 1000	83	10	1	2.1							
O=C1CCc2cc(OCCCC[S+]([O-])c3ccc(Cl)c(Cl)c3)ccc2N1 (stereo not shown) [U, 6-[4-(3,4-Dichlorophenyl-sulfinyl)-butoxy]-3,4-dihydro-carbostyril]	32	33	0 out of 10 animals	> 1000		15	4	0.27	34	20.8	1.1	40	13		
O=c1ccc2cc(OCCCCS(=O)(=O)c3ccccn3)ccc2[nH]1 [T, 6-[4-(2-Pyridyl-sulfonyl)-butoxy]-carbostyril]	29	5	0 out of 10 animals	> 1000	32	6	0.1	1	29			23	6.7	15	1.1
O=C1CCc2cc(OCCCCS(=O)(=O)c3ccccc3)ccc2N1 [Compound C, 6-(4-Phenylsulfonyl-butoxy)-3,4-dihydro-carbostyril]		26	0 out of 10 animals	> 1000	35	15	5	1.5							
O=C1CCc2cc(OCCCC[S+]([O-])c3ccc4ccccc4c3)ccc2N1 (stereo not shown) [L, 6-[4-(2-Naphthyl-sulfinyl)-butoxy]-3,4-dihydro-carbostyril]		15	0 out of 10 animals	> 1000	63	10	1	0.14							
O=C1CCc2cc(OCCCC[S+]([O-])c3ccc(Cl)cc3)ccc2N1 (stereo not shown) [I, 6-[4-(4-Chlorophenyl-sulfinyl)-butoxy]-3,4-dihydro-carbostyril]	4	> 300	0 out of 10 animals	> 1000	52	10	4	0.8							
O=C1CCc2cc(OCCCCS(=O)(=O)c3ccccn3)ccc2N1 [F, 6-[4-(2-Pyridyl-sulfonyl)-butoxy]-3,4-dihydro-carbostyril]		91	0 out of 10 animals	> 1000	18	20	20	3.8							
Cc1cc(=O)[nH]c2ccc(OCCCC[S+]([O-])c3ccccc3)cc12 (stereo not shown) [Q, 4-Methyl-6-(4-phenylsulfinyl-butoxy)-carbostyril]	22	39	0 out of 10 animals	> 1000	58	40	3.6	0.64							
O=C1CCc2cc(OCCCC[S+]([O-])c3ccccc3)ccc2N1 (stereo not shown) [B, 6-(4-Phenylsulfinyl-butoxy)-3,4-dihydro-carbostyril]	23	102	0 out of 10 animals	> 1000	30	20	4	1.9							
COc1ccccc1[S+]([O-])CCCCOc1ccc2c(c1)CCC(=O)N2 (stereo not shown) [M, 6-[4-(2-Methoxyphenyl-sulfinyl)-butoxy]-3,4-dihydro-carbostyril]		27	0 out of 10 animals	> 1000	65	22	4	0.15							
